Square brackets hold non-standard residues; d marks the D form. Peptide text beside a SMILES is read from it. * marks the point of attachment. Sta = CC(C)C[C@H](N)[C@@H](O)CC(=O)O; Isovaleryl = CC(C)CC(=O)*
How the values were obtained:
Plasma Renin Activity = Plasma Renin Activity of Sodium-Depleted Marmoset, oral activity; assay type: in vivo, Common marmosets (Callithrix jacchus); settings: 20 mg/kg IG
Protocol: The oral activity of compounds of Formula I was determined in vivo in Marmoset monkeys in accordance with the following procedure: Common marmosets (Callithrix jacchus, Charles River) were placed on a modified high protein low sodium diet (Purina, St. Louis, Mo.) for 1 to 2 weeks. On the day of the test an animal was anesthetized with isoflurane and cannulated in the femoral artery and vein for blood pressure monitoring, intravenous saralasin infusion and blood sampling. After allowing the animal to recover from surgery for 2 hr, saralasin was infused at 1 microgram/min for 15 minutes to confirm that the animal's blood pressure was dependent on angiotensin II levels. The marmoset was allowed to stabilize for 30 min after the saralasin infusion. The test compound was administered orally and blood pressure was monitored for 2 hr. Blood samples were taken in K-EDTA for plasma renin activity before, 30 min, and 1 hr after compound administration.

human renin = molecular target: T1, human renin (Homo sapiens, UniProt P00797); assay: human renin inhibition in vitro assay; assay type: biochemical; settings: pH 7.4, 37° C., two hours, human plasma substrate
T1 construct: purchased National Institute for Biological Standards, London
T1 sequence (P00797 67-406): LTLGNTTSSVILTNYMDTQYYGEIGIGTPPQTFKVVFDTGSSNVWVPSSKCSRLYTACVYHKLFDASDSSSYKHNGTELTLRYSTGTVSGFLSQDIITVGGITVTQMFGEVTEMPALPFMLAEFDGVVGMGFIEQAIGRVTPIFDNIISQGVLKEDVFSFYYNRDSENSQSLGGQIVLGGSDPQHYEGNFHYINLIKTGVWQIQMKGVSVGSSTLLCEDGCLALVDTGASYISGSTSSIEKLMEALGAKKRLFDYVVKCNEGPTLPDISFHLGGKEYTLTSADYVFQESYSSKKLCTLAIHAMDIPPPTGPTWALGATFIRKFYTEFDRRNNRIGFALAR
Protocol: Compounds of Formula I were evaluated as inhibitors of human renin in an in vitro assay, as follows: This human renin inhibition test has been previously described in detail [Papaioannou, et. al., Clinical and Experimental Hypertension, A7(9), 1243-1257 (1985)]. Human renin was obtained from the National Institute for Biological Standards, London. In a total volume of 0.25 mL 100 mM Tris-acetate buffer at PH 7.4, 25×10^-6 Goldblatt units of renin, 0.05 mL of plasma from human volunteers taking oral contraceptives, 6.0 mM sodium EDTA, 2.4 mM phenylmethyl sulfonyl fluoride, 1.5 mM 8-hydroxyquinoline, 0.4 mg/mL BSA, and 0.024 mg/mL neomycin sulfate were incubated for two hours at 37° C. in the presence or absence of renin inhibitors. The produced angiotensin I was determined by radioimmunoassay (New England Nuclear kit). Dipeptide glycols to be assayed were solubilized in either ethyl alcohol or DMSO and diluted with 100 mM Tris-acetate buffer at pH 7.4 to the appropriate concentration. The final concentration of organic solvent in the reaction mixture was less than 1%. Control incubations at 37° C. were used to correct for effects of organic solvent on renin activity.

hog renin = molecular target: T2, hog renin (Sus scrofa, UniProt A0A287APG1); assay: hog renin inhibition assay; assay type: biochemical; settings: pH 7.4, 37° C., one hour, synthetic tetradecapeptide substrate
T2 construct: purchased Sigma Chemical Co
T2 sequence (A0A287APG1 24-407): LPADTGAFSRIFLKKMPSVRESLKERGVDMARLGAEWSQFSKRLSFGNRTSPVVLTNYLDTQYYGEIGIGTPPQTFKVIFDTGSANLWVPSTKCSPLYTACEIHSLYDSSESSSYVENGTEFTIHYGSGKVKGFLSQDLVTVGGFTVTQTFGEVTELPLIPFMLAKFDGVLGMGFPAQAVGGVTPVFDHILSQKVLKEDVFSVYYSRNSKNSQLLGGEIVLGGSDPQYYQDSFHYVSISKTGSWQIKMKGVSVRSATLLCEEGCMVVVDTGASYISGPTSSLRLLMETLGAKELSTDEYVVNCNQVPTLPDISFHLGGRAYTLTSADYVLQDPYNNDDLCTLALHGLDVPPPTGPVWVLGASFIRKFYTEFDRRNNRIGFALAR
Protocol: The hog renin inhibition assay was conducted in a manner similar to the human resin assay, with the following modification: Hog renin was purchased from Sigma Chemical Co. and the synthetic tetradecapeptide substrate was obtained from peninsula Labs Inc. In a final volume of 0.25 mL 100 mM Tris-acetate buffer at pH 7.4, 0.125 m units hog renin, 20 micromolar tetradecapeptide, 6 mM disodium EDTA, 3.2 mM phenylmethyl sulfonyl fluoride, 3 mM 8-hydroxyquinoline, 1.2 mg/mL BSA and 0.024 mg/mL neomycin sulfate were incubated for one hour at 37° C. in the presence or absence of renin inhibitors. The amount of angiotensin I produced was determined as for the human renin inhibition assay.

[1] = test system: plasma renin activity (PRA); assay: plasma renin activity (PRA) reduction in Rhesus monkeys, intravenous; settings: Macaca mulatta, 0.25 h, furosemide pre-treated Rhesus monkeys, dose reducing PRA to 50% of pretreatment control, read-out: Rhesus (in vivo) PRA Reduction ED50
Protocol: The effect of inhibitor on plasma renin activity (PRA) in Rhesus monkeys was determined as follows: Rhesus monkeys were pre-treated with furosemide (0.2 mg/kg; i.m.) followed by another equal does 6 hours later. Then, 24 hours after the first treatment, the animals were chaired and blood samples collected for pre-treatment controls; immediately thereafter dosing with drug was started. The compounds were administered intravenously every 30 min and blood samples were collected 15 min after each administration. PRA was determined by the method of Sealey and Laragh Cardiovascular Med. 2, 1079-1092 (1977), and the concentration of angiotensin I produced was determined by radioimmunoassay.

blood pressure = settings: after the injection of hog renin into nephrectomized rats; cited from earlier work
[2] = test system: aspartyl proteases such as pepsin, cathepsin D and renin; settings: cited from earlier work

For CC(C)C[C@H](NC(=O)[C@H](Cc1ccccc1)OC(=O)N1CCOCC1)C(=O)N[C@@H](CC1CCCCC1)[C@@H](O)[C@@H](O)CC(C)C [Example 6, O-(N-morpholinocarbonyl)-3-L-phenyllactyl-L-leucinamide of (2S,3R,4S)-2-amino-1-cyclohexyl-3,4-dihydroxy-6-methylheptane], the “Plasma Renin Activity” value (Plasma Renin Activity; 30 min, Animal No. 206) was 2.2 ng AI/ml/hr, the “Plasma Renin Activity” value (Plasma Renin Activity; 30 min, Animal No. 207) was 0.2 ng AI/ml/hr and the “Plasma Renin Activity” value (Plasma Renin Activity; 30 min, Animal No. 208) was 1.0 ng AI/ml/hr. The “Plasma Renin Activity” value (Plasma Renin Activity; 60 min, Animal No. 206) was 0.6 ng AI/ml/hr, the “Plasma Renin Activity” value (Plasma Renin Activity; 60 min, Animal No. 207) was 0.9 ng AI/ml/hr and the “Plasma Renin Activity” value (Plasma Renin Activity; 60 min, Animal No. 208) was 2.0 ng AI/ml/hr. For the same compound, the “Plasma Renin Activity” value (Plasma Renin Activity; Pretreatment, Animal No. 206) was 16.3 ng AI/ml/hr, the “Plasma Renin Activity” value (Plasma Renin Activity; Pretreatment, Animal No. 207) was 16.4 ng AI/ml/hr and the “Plasma Renin Activity” value (Plasma Renin Activity; Pretreatment, Animal No. 208) was 15.7 ng AI/ml/hr. It also gave an IC50 (human renin) of 0.07 µM, an IC50 (hog renin) of 0.16 µM and an ED50 [1] of 0.012 mg/kg.

Compound CC(C)C[C@H](NC(=O)[C@H](Cc1ccccc1)OC(=O)N1CCOCC1)C(=O)N[C@@H](CC1CCCCC1)[C@@H](O)[C@H](C)O [Example 9, O-(N-morpholinocarbonyl)-3-L-phenyllactyl-L-leucinamide of (2S,3R,4S)-2-amino-1-cyclohexyl-3,4-dihydroxypentane] has an IC50 (human renin) of 0.1 µM and an IC50 (hog renin) of 6.6 µM.

With CC(C)C[C@H](NC(=O)[C@H](Cc1ccccc1)OC(=O)N1CCOCC1)C(=O)N[C@@H](CC1CCCCC1)[C@@H](O)CO [Example 11, O-(N-morpholinocarbonyl)-3-L-phenyllactyl-L-leucinamide of (2S, 3R)-2-amino-1-cyclohexyl-3,4-dihydroxybutane] the “Plasma Renin Activity” value (Plasma Renin Activity; 30 min, Animal No. 205) was 0.6 ng AI/ml/hr, the “Plasma Renin Activity” value (Plasma Renin Activity; 30 min, Animal No. 209) was 1.1 ng AI/ml/hr and the “Plasma Renin Activity” value (Plasma Renin Activity; 30 min, Animal No. 221) was 48.5 ng AI/ml/hr. The “Plasma Renin Activity” value (Plasma Renin Activity; 60 min, Animal No. 205) was 4.5 ng AI/ml/hr, the “Plasma Renin Activity” value (Plasma Renin Activity; 60 min, Animal No. 209) was 0.0 ng AI/ml/hr and the “Plasma Renin Activity” value (Plasma Renin Activity; 60 min, Animal No. 221) was 24.9 ng AI/ml/hr. The “Plasma Renin Activity” value (Plasma Renin Activity; Pretreatment, Animal No. 205) was 17.5 ng AI/ml/hr, the “Plasma Renin Activity” value (Plasma Renin Activity; Pretreatment, Animal No. 209) was 39.3 ng AI/ml/hr and the “Plasma Renin Activity” value (Plasma Renin Activity; Pretreatment, Animal No. 221) was 37.6 ng AI/ml/hr. For the same compound, the IC50 (human renin) was 0.49 µM, the IC50 (hog renin) was 7.2 µM and the ED50 [1] was 1.6 mg/kg.

In the case of CC(C)CC(=O)N[C@H](C(=O)N[C@H](C(=O)N[C@@H](CC(C)C)[C@@H](O)CC(=O)N[C@@H](C)C(=O)N[C@@H](CC(C)C)[C@@H](O)CC(=O)O)C(C)C)C(C)C [pepstatin] (Isovaleryl-VV[Sta]A[Sta]-OH), the “blood pressure reduction in vivo” value (blood pressure) is given as “reduce blood pressure in vivo” and the “inhibition of aspartyl proteases” value [2] is given as “inhibitor of aspartyl proteases”.
